Assay results taken from PMC9582434, “Ryanodine receptor-active non-dioxin-like polychlorinated biphenyls cause neurobehavioral deficits in larval zebrafish” (Frontiers in Toxicology, 2022).

Legend:
larval zebrafish [1] = experiment: Larval photomotor behavior test (light/dark locomotor test); assay type: in vivo; settings: for Behavior score (total change from control): sum of absolute [1 − (AUC value/DMSO)] over all concentrations, epochs and 3, 4, 5 dpf; for distance traveled relative to vehicle control: on average across larval ages
Protocol: (§1) At 4 hpf, embryos were treated with 50 µl of 41 mg/ml protease from Streptomyces griseus (P5147, Sigma-Aldrich, St. Louis, MO, United States) in 25 ml of FW for a maximum of 6 min to remove the chorion ([Truong et al., 2011]). At 5 hpf, embryos were placed in individual wells of 96-well plates filled with 100 µl of EM. At 6 hpf, embryos were exposed to a 2× concentration of the selected PCB congeners or controls that were diluted in 100 μl EM to produce a 1× concentration in a total of 200 µl solution. […] After exposure, plates were covered with Parafilm M (Bemis NA, Neenah, WI, United States) to reduce evaporation and placed in an incubator at 28.5°C with 14 h light (∼300 lux)/10 h dark cycles. Final DMSO concentrations were 0.2% (vol/vol) for all exposures. Fish were statically exposed until 5 dpf.
Larval locomotor tests were performed at 3, 4, and 5 dpf. Vehicle and PCB-exposed larvae in 96-well plates were placed in a DanioVision behavior system (Noldus Information Technology, Leesburg, VA, United States) and subjected to a 35 min light/dark locomotor test. System and plate temperature were maintained at 28.5 ± 0.5°C using a temperature control unit from Noldus. The testing paradigm consisted of a 10 min light period (∼1,900 lux) to allow for acclimation (5 min) and to record baseline swimming (5 min). This was followed by a 5 min dark period (∼0 lux) to stimulate increased swimming behavior and a 5 min light period (∼1,900 lux) to stimulate freezing behavior. The last 15 min consisted of a dark period (∼0 lux) to observe increased swimming behavior and acclimation to the dark conditions.
The distance traveled binned per minute by each larva during the 35-min observation test period was recorded via continuous tracing using a DanioVision system camera with an infrared filter to allow recording in both light and dark conditions. Movement was tracked using EthoVisionXT software (Noldus Information Technology) and exported to Excel and Prism 6.0 (GraphPad Software) for analysis and visualization. Dead and/or malformed larvae (as noted by observation under dissecting scope) were excluded from the behavior analysis.
The trapezoidal rule was used to compute the area under the curve (AUC) for each fish per day per lighting condition. The first 5 min of the 35-min observation period was removed to account for initial acclimation. Therefore, data were analyzed for the following time epochs: Light 1 (L1) = 6–10 min, Dark 1 (D1) = 11–15 min, Light 2 (L2) = 16–20 min, and Dark 2 (D2) = 21–35 min. Mixed effects regression models, including zebrafish-specific random effects, were used to assess differences between groups. DMSO groups from each spawn date (≥3 independent spawns) and plate were combined in the analysis. Separate models were fit for each congener. New variables were defined to capture differences in the AUC between Light 1 and Dark 1, Dark 1 and Light 2, and Light 2 and Dark 2, to measure change in distance traveled when transitioning from light to dark or dark to light. Contrasts were specified to compare these transitions and the AUC during each of the lighting conditions between the exposed groups and the DMSO control group. […] Due to some zeroes in the AUC, all values were shifted by 0.1 prior to taking the natural logarithm. Concentration (0.1, 0.3, 1, 3, 10 µM and DMSO), day (3, 4, 5 dpf), and the transition variables were all of interest in the models, including their interactions. Akaike information criterion was used for model selection and Wald tests for comparing groups. All analyses were conducted using SAS version 9.4.
The neurotoxic potential of the congeners tested in this study were ranked based on the three endpoints measured in this study: RYR binding, behavior, and body burden. Congeners were ranked relative to each other for each individual endpoint from 1 (highest) to 6 (lowest), and then the three scores for each congener averaged to obtain an overall relative ranking for each congener. […]

[2] = Enantioselective gas chromatographic analysis of PCB residues in larvae; assay type: in vivo, zebrafish; settings: residues in exposed larvae; no significant atropisomeric enrichment
Protocol: The enantioselective analysis of PCB 84 was performed on a 6890 Agilent gas chromatograph equipped with a ^63Ni-µECD detector and CP-Chiralsil-Dex CB capillary column with cyclodextrin directly bonded to dimethylpolysiloxane (25 m length, 0.25 mm inner diameter, 0.25 µm film thickness; Varian, Palo Alto, CA, United States). The temperature program was as follows ([Kania-Korwel et al., 2006]): starting temperature 50°C, hold for 1 min, 10°C/min to 140°C for 100 min, then 10°C/min to 200°C for 5 min. The enantioselective analysis of PCB 95 was performed on a 7890 Agilent gas chromatograph equipped with a ^63Ni-µECD detector and Chiraldex B-DM (BDM) capillary column (length, 30 m × inner diameter, 250 μm × 0.12 µm film thickness, Supelco; St. Louis, MO, United States). The following temperature program was used ([Uwimana et al., 2016]): starting temperature 50°C for 1 min, 10°C/min to 160°C for 90 min, then 10°C/min to 200°C for 10 min. For both instruments, the injector was operated in the splitless mode at 250°C, and the detector temperature was 250°C. […] Enantiomer fractions (EF) were calculated with the drop valley method ([Asher et al., 2009]; [Uwimana et al., 2016]) as EF = Area E1/(Area E1 + Area E2), were Area E1 and Area E2 denote the peak area of the first and second eluting atropisomer, respectively. […]

larval zebrafish [3] = experiment: Teratological and mortality assessment, static exposure 6 hpf to 5 dpf; assay type: in vivo; settings: 30 µM; by 3 dpf; data not shown
Protocol: as §1
Exposed fish were examined daily for any gross morphological malformations and mortality using an Olympus Stereo Microscope Model SZ61 (Olympus, Japan) up to ×4.5 magnification. […] Teratological endpoints that were evaluated include yolk sac edema, pericardial edema, somite formation, deformities of the body axis, notochord, craniofacial structures, or caudal fin. Malformations were scored in a binary manner of either present or not present. Fish that were scored as neither malformed nor dead were deemed viable. […]

larval zebrafish [4] = settings: 2020, cited from earlier work

Row | SMILES | distance moved relative to vehicle control (larval zebrafish [1]; 0.3 µM, 4 dpf, L1) | distance moved relative to vehicle control (larval zebrafish [1]; 3 µM, 3 dpf, D2) | distance moved relative to vehicle control (larval zebrafish [1]; 10 µM, 3 dpf, D2) | distance moved relative to vehicle control (larval zebrafish [1]; 10 µM, 5 dpf, L2) | Behavior score (total change from control) (larval zebrafish [1]) | L1-D1 transition relative to vehicle control (larval zebrafish [1]; 0.3 µM, 4 dpf) | distance moved relative to vehicle control (larval zebrafish [1]; 3 µM, 3 dpf, L2) | L1-D1 transition relative to vehicle control (larval zebrafish [1]; 3 µM, 5 dpf) | distance moved relative to vehicle control (larval zebrafish [1]; 3 µM, 5 dpf, L1) | distance moved relative to vehicle control (larval zebrafish [1]; 10 µM, 3 dpf, D1) | distance moved relative to vehicle control (larval zebrafish [1]; 10 µM, 3 dpf, L1) | distance moved relative to vehicle control (larval zebrafish [1]; 10 µM, 3 dpf, L2) | L1-D1 transition relative to vehicle control (larval zebrafish [1]; 10 µM, 4 dpf) | L1-D1 transition relative to vehicle control (larval zebrafish [1]; 10 µM, 5 dpf) | distance moved relative to vehicle control (larval zebrafish [1]; 10 µM, 5 dpf, L1) | average EF (enantiomer fraction) values [2] | distance moved relative to vehicle control (larval zebrafish [1]; 10 µM, 4 dpf, L2) | distance moved relative to vehicle control (larval zebrafish [1]; 10 µM, 5 dpf, D2) | distance moved relative to vehicle control (larval zebrafish [1]; 1 µM, 3 dpf, D1) | other results
1 | Clc1ccc(-c2ccc(Cl)cc2Cl)cc1 [PCB 28] | traveling less | significantly less | significantly less | moved less | 10.83 |  |  |  |  |  |  |  |  |  |  |  |  |  |  | increase of L1-D1 transition relative to vehicle controls (larval zebrafish [1]; 0.1 µM, 4 dpf): 0.9 mm; distance moved relative to vehicle control (larval zebrafish [1]; 0.1 µM, 4 dpf, D1): significantly more; increase of L1-D1 transition relative to vehicle controls (larval zebrafish [1]; 0.3 µM, 4 dpf): 1.3 mm; distance moved relative to vehicle control (larval zebrafish [1]; 0.3 µM, 4 dpf, D1): significantly more; increase of L1-D1 transition relative to vehicle controls (larval zebrafish [1]; 1 µM, 4 dpf): 0.87 mm; distance moved relative to vehicle control (larval zebrafish [1]; 1 µM, 4 dpf, D1): significantly more; increase of L1-D1 transition relative to vehicle controls (larval zebrafish [1]; 3 µM, 4 dpf): 0.9 mm; distance moved relative to vehicle control (larval zebrafish [1]; 3 µM, 4 dpf, D1): significantly more; increase of L1-D1 transition relative to vehicle controls (larval zebrafish [1]; 10 µM, 4 dpf): 0.8 mm
2 | Clc1cccc(-c2c(Cl)ccc(Cl)c2Cl)c1Cl [PCB 84] | significantly less movement |  | moved more |  | 28.93 | moved more | moved more | increased less | moved more | moved more | Increased | Increased | moved less | increased less | moved more | 0.50 ± 0.01 |  |  |  | distance moved relative to vehicle control (larval zebrafish [1]; 0.1 µM, 3 dpf, D1): moved less; distance moved relative to vehicle control (larval zebrafish [1]; 0.1 µM, 3 dpf, D2): moved less; distance moved relative to vehicle control (larval zebrafish [1]; 0.1 µM, 3 dpf, L2): moved less; distance moved relative to vehicle control (larval zebrafish [1]; 0.3 µM, 5 dpf, L1): moved more; L1-D1 transition relative to vehicle control (larval zebrafish [1]; 1 µM, 4 dpf): moved more; distance moved relative to vehicle control (larval zebrafish [1]; 1 µM, 4 dpf, L1): significantly less movement
3 | Clc1ccc(Cl)c(-c2c(Cl)ccc(Cl)c2Cl)c1 [PCB 95, 2,2',3,5',6-pentachlorobiphenyl] |  | moved more | significantly more |  | 81.46 |  | moved more | significantly less | more | significantly more | significantly more | significantly more | decreased | decreased | more | 0.50 ± 0.01 | significantly more | significantly less |  | L1-D1 transition relative to vehicle control (larval zebrafish [1]; 0.1 µM, 4 dpf): moved more; distance moved relative to vehicle control (larval zebrafish [1]; 10 µM, 4 dpf, D1): significantly less; distance moved relative to vehicle control (larval zebrafish [1]; 10 µM, 4 dpf, L1): significantly more; distance moved relative to vehicle control (larval zebrafish [1]; 10 µM, 5 dpf, D1): significantly less; loss of viability (larval zebrafish [3]): ~100%; malformations after developmental exposure (larval zebrafish [4]; exposure commenced shortly after fertilization, ref Ranasinghe et al.): caused malformations
4 | Clc1cc(Cl)c(-c2ccc(Cl)c(Cl)c2Cl)cc1Cl [PCB 138] |  | moved more | moved more |  | 29.32 |  |  |  |  | moved more |  |  |  |  |  |  |  | moved less | moved more | increase of L1-D1 transition compared to the control group (larval zebrafish [1]; 0.3 µM, 4 dpf): 0.821; increase of L1-D1 transition compared to the control group (larval zebrafish [1]; 1 µM, 4 dpf): 0.68; distance moved relative to vehicle control (larval zebrafish [1]; 3 µM, 3 dpf, D1): moved more; decrease of L1-D1 transition compared to controls (larval zebrafish [1]; 3 µM, 5 dpf): 0.7; decrease of L1-D1 transition compared to the control group (larval zebrafish [1]; 10 µM, 4 dpf, not quite statistically significant (p = 0.06)): 0.6
5 | Clc1cc(Cl)c(-c2cc(Cl)c(Cl)cc2Cl)cc1Cl [PCB 153, 2,2',4,4',5,5'-Hexachlorobiphenyl] | moved more |  | moved more | more movement | 23.05 | attenuating |  |  |  | moved more |  | moved more |  | attenuated | moved more |  | moved more |  | moved more | L1-D1 transition relative to vehicle control (larval zebrafish [1]; 1 µM, 3 dpf): larger; distance moved relative to vehicle control (larval zebrafish [1]; 1 µM, 3 dpf, D2): moved more; distance moved relative to vehicle control (larval zebrafish [1]; 1 µM, 3 dpf, L2): moved more; L1-D1 transition relative to vehicle control (larval zebrafish [1]; 10 µM, 3 dpf): larger; malformations or mortality (larval zebrafish [4]; larval zebrafish younger than 7 dpf, static exposure, up to 10 μM, ref Aluru et al.): no malformations or mortality
6 | Clc1ccc(-c2ccc(Cl)c(Cl)c2)c(Cl)c1 [PCB 66] |  |  |  |  | 14.39 |  |  |  |  |  |  |  |  |  |  |  |  |  |  | distance traveled relative to vehicle control (larval zebrafish [1]; 0.11 µM, L1): significantly decreased; distance traveled relative to vehicle control (larval zebrafish [1]; 1 µM, L1): significantly decreased
